US9951058B2, “Compound, pharmaceutically acceptable salt or optical isomer thereof, method for preparing the same, and pharmaceutical composition for prevention or treatment of viral diseases containing same as active ingredient” (Korea Research Institute of Chemical Technology, priority 2012, dated 2018)
Values after ≈ are worked out from the molar mass of the structure shown. Read-outs that look alike come from different tables or passages of the source.

How the values were obtained:
poliovirus 3 (PV3) = test: microbe, parasite or virus in culture; assay type: cell-based; settings: for EC50: Enterovirus C, 72 h, read-out: EC50 PV3; for EC50 PV3: 100 CCID50, MTS, 37° C., 3 days
[1] = Cytotoxicity (CC50) in multicycle CPE reduction assay, MTS; settings: human
HRV 71 = test: Cytopathic effect (CPE) inhibition assay; assay type: cell-based, human rhinovirus; settings: for EC50: Human rhinovirus sp., 72 h, read-out: EC50 HRV 71
[2] = test system: coxsackievirus B1 (Cox B1); test: Multicycle cytopathic effect (CPE) reduction assay; assay type: cell-based; settings: for EC50: Enterovirus B, B1, 72 h, read-out: EC50 CoxB1; for EC50 CoxB1: 100 CCID50, MTS, 37° C., 3 days
[3] = Cytotoxicity (CC50) in mock-infected cells, CPE inhibition assay, MTT; settings: human
HRV 21 = test: Cytopathic effect (CPE) inhibition assay; assay type: cell-based, human rhinovirus; settings: for EC50: Human rhinovirus sp., 72 h, read-out: EC50 HRV 21
[4] = test system: coxsackievirus B3 (Cox B3); test: Multicycle cytopathic effect (CPE) reduction assay; assay type: cell-based; settings: for EC50: Enterovirus B, B3, 72 h, read-out: EC50 CoxB3; for EC50 CoxB3: 100 CCID50, MTS, 37° C., 3 days
HRV 14 = test: Cytopathic effect (CPE) inhibition assay; assay type: cell-based, human rhinovirus; settings: for EC50: Human rhinovirus sp., HeLa, 72 h, read-out: EC50 HRV 14
[5] = in vivo, cited from earlier work
[6] = cited from earlier work; for therapeutic effect: clinical
[7] = test system: rhinoviruses and enteroviruses; settings: cited from earlier work
[8] = test system: 48 rhinovirus types and coxsackievirus A21, B3, enterovirus 70 and echovirus 11; settings: Pattick et al. 1999; cited from earlier work
HeLa = test: Cytotoxicity (CC50) in multicycle CPE reduction assay, MTS; settings: Table 4; MTS, 37° C., 3 days
[9] = test system: HeLa (human cervical cancer cells); test: Cytotoxicity (CC50) in mock-infected cells, CPE inhibition assay, MTT; settings: Table 3; mock-infected cells, MTT assay, 2-3 days
[10] = test system: HeLa (human cervical cancer cells)
in vitro = settings: human
[11] = host cell HeLa, 3 days, MEM/2% FBS, MTT assay

Row | Molecule | EC50 (poliovirus 3 (PV3)) | CC50 at 3 days [1] | EC50 [2] | EC50 [4] | EC50 (HRV 71; [11]) | CC50 (in vitro) | EC50 (HRV 21; [11]) | EC50 (HRV 14; [11]) | also measured
1 | CC(C)c1ccc2c(c1)OC1(O)c3c(cccc3[N+](=O)[O-])C(=O)C21NC(=O)C(=O)Cc1ccccc1[N+](=O)[O-] (stereo not drawn) [Example 25, N-(4b-hydroxy-7-isopropyl-4-nitro-10-oxo-4b, 10-dihydro-9bH-indeno[1,2-b]benzofuran-9b-yl)-3-(2-nitrophenyl)-2-oxo propanamide] | > 9.5 µg/mL | 9.5 µg/mL (≈ 17.9 µM) | < 1 µg/mL | < 1 µg/mL |  |  |  |  | EC50 (HRV 71; HeLa): > 2.6 µg/mL; CC50 [3]: 2.6 µg/mL (≈ 4.89 µM); EC50 (HRV 21; HeLa): > 2.6 µg/mL; EC50 (HRV 14): > 2.6 µg/mL
2 | Cc1cc(CCCCCOc2c(Cl)cc(C3=NCCO3)cc2Cl)on1 [WIN 54954] |  |  |  |  |  |  |  |  | metabolization and excretion [5]: rapid metabolization and excretion; side effects ([6]; in vivo): skin rash
3 | CCOC(=O)c1ccc(OCCC2CCN(c3ccc(C)nn3)CC2)cc1 [pirodavir] |  |  |  |  |  |  |  |  | antiviral effects in the cell culture [7]: very good antiviral effects
4 | CCOC(=O)/C=C/[C@H](C[C@@H]1CCNC1=O)NC(=O)[C@@H](CC(=O)[C@@H](NC(=O)c1cc(C)on1)C(C)C)Cc1ccc(F)cc1 [AG 7088] |  |  |  |  |  |  |  |  | concentration range of effect in the cell culture [8]: nanomolar concentration range
5 | N-(1-amino-4b-hydroxy-7-isopropyl-10-oxo-4b, 10-dihydro-9bH-indeno[1,2-b]benzofuran-9b-yl)-2-oxo hexanamide [Example 50] |  |  |  |  |  |  |  |  | EC50 PV3 (poliovirus 3 (PV3)): <1.0 µg/mL; CC50 Cytotoxicity (HeLa): >10.0 µg/mL; EC50 HRV 71 (HRV 71; [11]): >10.0 µg/mL; EC50 CoxB1 [2]: <0.1 µg/mL; CC50 Cytotoxicity [9]: >10.0 µg/mL; EC50 HRV 21 (HRV 21; [11]): >10.0 µg/mL; EC50 CoxB3 [4]: <0.1 µg/mL; EC50 HRV 14 (HRV 14; [11]): <0.1 µg/mL
6 | Cc1cc(CCCOc2c(C)cc(-c3noc(C(F)(F)F)n3)cc2C)on1 [Pleconaril] |  |  |  |  |  |  |  |  | oral bioavailability ([5]; po): very good oral bioavailability; therapeutic effect [6]: therapy success was too low; side effects ([6]; in vivo): side effects were observed
7 | N-(4b-hydroxy-7-isopropyl-4-nitro-10-oxo-4b, 10-dihydro-9bH-indeno[1,2-b]benzofuran-9b-yl)-2-oxo-4-phenyl butanamide [Example 59] |  |  |  |  |  |  |  |  | EC50 PV3 (poliovirus 3 (PV3)): <0.1 µg/mL; CC50 Cytotoxicity (HeLa): >10.0 µg/mL; EC50 HRV 71 (HRV 71; [11]): >8.6 µg/mL; EC50 CoxB1 [2]: <0.1 µg/mL; CC50 Cytotoxicity [9]: 8.6 µg/mL; EC50 HRV 21 (HRV 21; [11]): >8.6 µg/mL; EC50 CoxB3 [4]: <0.1 µg/mL; EC50 HRV 14 (HRV 14; [11]): <0.1 µg/mL
8 | CC(C)c1ccc2c(c1)OC1(O)c3ccccc3C(=O)C21NC(=O)CCC(=O)O (stereo not drawn) [Example 57, 4-((4b-hydroxy-7-isopropyl-10-oxo-4b, 10-dihydro-9bH-indeno[1,2-b]benzofuran-9b-yl)amino)-4-oxo butanoic acid] |  |  |  |  |  |  |  |  | EC50 PV3 (poliovirus 3 (PV3)): >10.0 µg/mL; CC50 Cytotoxicity (HeLa): >10.0 µg/mL; EC50 HRV 71 (HRV 71; [11]): >10.0 µg/mL; EC50 CoxB1 [2]: <1.0 µg/mL; CC50 Cytotoxicity [10]: >10.0 µg/mL; EC50 HRV 21 (HRV 21; [11]): >10.0 µg/mL; EC50 CoxB3 [4]: <1.0 µg/mL; EC50 HRV 14 (HRV 14; [11]): <10.0 µg/mL
9 | CCC(=O)C(CCCCCCOc1ccc(OC)cc1Cl)C(=O)CC [arildone] |  |  |  |  |  |  |  |  | bioavailability [5]: low bioavailability; antiviral effects in the cell culture [7]: very good antiviral effects
10 | CC(C)S(=O)(=O)n1c(N)nc2ccc(/C(=N/O)c3ccccc3)cc21 [Enviroxime] |  |  |  |  |  |  |  |  | therapeutic effect [6]: few or no therapeutic effects; pharmacokinetics ([6]; in vivo): insufficient pharmacokinetics; side effects ([6]; in vivo): unwanted side effects
11 | CC(C)c1ccc2c(c1)OC1(O)c3c(cccc3[N+](=O)[O-])C(=O)C21NC(=O)C(=O)c1c[nH]c2ccccc12 (stereo not drawn) [Example 8, N-(4b-hydroxy-7-isopropyl-4-nitro-10-oxo-9b, 10-dihydro-4bH-indeno[1,2-b]benzofuran-9b-yl)-2-(1H-indol-3-yl)-2-oxo acetamide] | 9.8 µg/mL (≈ 19.2 µM) | > 10 µg/mL | 0.56 µg/mL (≈ 1.09 µM) | 1.82 µg/mL (≈ 3.56 µM) | > 10 µg/mL | > 10 µg/mL | > 10 µg/mL | 2.31 µg/mL (≈ 4.52 µM) | 
12 | Cc1cc(CCCCCCCOc2ccc(C3=NCCO3)cc2)on1 [disoxaril] |  |  |  |  |  |  |  |  | bioavailability [5]: low bioavailability; metabolization and excretion [5]: rapid metabolization and excretion; antiviral effects in the cell culture [7]: very good antiviral effects
13 | CC(C)c1ccc2c(c1)OC1(O)c3ccccc3C(=O)C21NC(=O)CNC(=O)OC(C)(C)C (stereo not drawn) [Example 63, tert-butyl (2-((4b-hydroxy-7-isopropyl-10-oxo-4b, 10-dihydro-9bH-indeno[1,2-b]benzofuran-9b-yl)amino)-2-oxoethyl)carbamate] | < 10 µg/mL | > 10 µg/mL | < 0.1 µg/mL | < 0.1 µg/mL | > 10 µg/mL | > 10 µg/mL | > 10 µg/mL | < 1 µg/mL | 
14 | CSCCC(=O)C(=O)NC12C(=O)c3ccccc3C1(O)Oc1cc(C(C)C)ccc12 (stereo not drawn) [Example 17, N-(4b-hydroxy-7-isopropyl-10-oxo-9b, 10-dihydro-4bH-indeno[1,2-b]benzofuran-9b-yl)-4-(methylthio)-2-oxo butanamide] | 2.61 µg/mL (≈ 6.13 µM) | > 10 µg/mL | 0.033 µg/mL (≈ 0.0776 µM) | 0.067 µg/mL (≈ 0.157 µM) | > 10 µg/mL | > 10 µg/mL | > 10 µg/mL | 6.99 µg/mL (≈ 16.4 µM) | 
15 | CC(C)c1ccc2c(c1)OC1(O)c3ccccc3C(=O)C21NC(=O)C(=O)c1ccco1 (stereo not drawn) [Example 7, 2-(furan-2-yl)-N-(4b-hydroxy-7-isopropyl-10-oxo-9b, 10-dihydro-4bH-indeno[1,2-b]benzofuran-9b-yl)-2-oxo acetamide] | < 1 µg/mL | > 10 µg/mL | < 0.01 µg/mL | < 0.01 µg/mL | > 10 µg/mL | > 10 µg/mL | > 10 µg/mL | < 0.1 µg/mL | 
16 | CCOC(=O)C(=O)NC12C(=O)c3ccccc3C1(O)Oc1cc(C(C)C)ccc12 (stereo not drawn) [Example 32, Ethyl 2-((4b-hydroxy-7-isopropyl-10-oxo-4b, 10-dihydro-9bH-indeno[1,2-b]benzofuran-9b-yl)amino)-2-oxo acetate] | < 10 µg/mL | > 10 µg/mL | < 0.1 µg/mL | < 1 µg/mL | > 10 µg/mL | > 10 µg/mL | > 10 µg/mL | < 1 µg/mL | 
